Experimental data published in US20240246942A1, “KINASE INHIBITORS FOR THE TREATMENT OF NEURODEGENERATIVE DISEASES” (priority 2020, published 2024).

Columns and labels:
Test in all cases: biochemical
[1] = molecular target: T1, panel of 374 wild-type kinases (Homo sapiens, UniProt P49137); conditions: read-out: % Enzyme Activity (relative to DMSO controls), MAPKAPK2
T1 construct: purchased Reaction Biology Corporation

[2] = molecular target: T2, panel of 374 wild-type kinases (Homo sapiens, UniProt Q13554); conditions: read-out: % Enzyme Activity (relative to DMSO controls), CAMK2b
T2 construct: purchased Reaction Biology Corporation

[3] = molecular target: T3, panel of 374 wild-type kinases (Homo sapiens, UniProt P07333); conditions: read-out: % Enzyme Activity (relative to DMSO controls), FMS
T3 construct: purchased Reaction Biology Corporation

[4] = molecular target: T4, panel of 374 wild-type kinases (Homo sapiens, UniProt Q16644); conditions: read-out: % Enzyme Activity (relative to DMSO controls), MAPKAPK3
T4 construct: purchased Reaction Biology Corporation

[5] = molecular target: T5, panel of 374 wild-type kinases (Homo sapiens, UniProt Q9BYP7); conditions: read-out: % Enzyme Activity (relative to DMSO controls), kinase WNK3
T5 construct: purchased Reaction Biology Corporation

[6] = molecular target: T6, panel of 374 wild-type kinases (Homo sapiens, UniProt P51817); conditions: read-out: % Enzyme Activity (relative to DMSO controls), kinase PRKX
T6 construct: purchased Reaction Biology Corporation
T6 sequence (P51817 1-358): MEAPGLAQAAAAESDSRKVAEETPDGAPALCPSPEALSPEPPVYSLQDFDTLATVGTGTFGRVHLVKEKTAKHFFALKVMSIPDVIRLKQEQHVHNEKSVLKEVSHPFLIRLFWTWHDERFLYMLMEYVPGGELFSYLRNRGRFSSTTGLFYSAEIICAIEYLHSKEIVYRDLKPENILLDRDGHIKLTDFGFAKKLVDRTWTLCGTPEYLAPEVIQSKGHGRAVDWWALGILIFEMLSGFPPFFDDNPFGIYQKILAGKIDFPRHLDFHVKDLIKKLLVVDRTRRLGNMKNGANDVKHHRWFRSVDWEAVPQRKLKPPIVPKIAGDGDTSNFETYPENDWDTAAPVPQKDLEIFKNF

[7] = molecular target: T7, panel of 374 wild-type kinases (Homo sapiens, UniProt Q05513); conditions: read-out: % Enzyme Activity (relative to DMSO controls), kinase PKCzeta
T7 construct: purchased Reaction Biology Corporation
T7 sequence (Q05513 1-592): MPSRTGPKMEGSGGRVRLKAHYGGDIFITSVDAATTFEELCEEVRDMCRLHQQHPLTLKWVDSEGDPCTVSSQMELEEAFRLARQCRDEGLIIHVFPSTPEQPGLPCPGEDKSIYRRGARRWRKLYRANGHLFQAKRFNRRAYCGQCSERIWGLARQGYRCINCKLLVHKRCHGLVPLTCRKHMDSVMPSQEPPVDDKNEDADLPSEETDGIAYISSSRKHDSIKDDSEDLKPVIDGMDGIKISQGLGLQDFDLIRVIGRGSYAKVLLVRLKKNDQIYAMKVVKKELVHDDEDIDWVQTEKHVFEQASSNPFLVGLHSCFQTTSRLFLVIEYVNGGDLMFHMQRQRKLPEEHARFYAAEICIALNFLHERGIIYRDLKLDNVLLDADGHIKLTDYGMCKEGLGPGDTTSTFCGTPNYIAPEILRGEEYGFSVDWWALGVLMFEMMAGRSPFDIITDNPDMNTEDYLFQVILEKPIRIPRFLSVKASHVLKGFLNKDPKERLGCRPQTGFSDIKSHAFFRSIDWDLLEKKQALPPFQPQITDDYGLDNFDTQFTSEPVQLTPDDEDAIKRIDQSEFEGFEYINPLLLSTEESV

[8] = molecular target: T8, panel of 374 wild-type kinases (Homo sapiens, UniProt P22607); conditions: read-out: % Enzyme Activity (relative to DMSO controls), FGFR3
T8 construct: purchased Reaction Biology Corporation

[9] = molecular target: T9, panel of 374 wild-type kinases (Homo sapiens, UniProt P11309); conditions: read-out: % Enzyme Activity (relative to DMSO controls), kinase PIM1
T9 construct: purchased Reaction Biology Corporation
T9 sequence (P11309 whole entry): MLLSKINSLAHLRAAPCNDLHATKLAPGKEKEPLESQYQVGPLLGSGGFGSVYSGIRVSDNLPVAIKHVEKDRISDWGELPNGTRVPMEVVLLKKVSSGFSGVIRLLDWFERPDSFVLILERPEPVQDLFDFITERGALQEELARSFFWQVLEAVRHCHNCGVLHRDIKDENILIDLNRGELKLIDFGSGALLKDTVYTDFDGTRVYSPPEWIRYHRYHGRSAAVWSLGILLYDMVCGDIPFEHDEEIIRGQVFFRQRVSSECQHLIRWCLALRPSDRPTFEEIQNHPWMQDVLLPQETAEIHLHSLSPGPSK

T5 sequence (Q9BYP7 whole entry): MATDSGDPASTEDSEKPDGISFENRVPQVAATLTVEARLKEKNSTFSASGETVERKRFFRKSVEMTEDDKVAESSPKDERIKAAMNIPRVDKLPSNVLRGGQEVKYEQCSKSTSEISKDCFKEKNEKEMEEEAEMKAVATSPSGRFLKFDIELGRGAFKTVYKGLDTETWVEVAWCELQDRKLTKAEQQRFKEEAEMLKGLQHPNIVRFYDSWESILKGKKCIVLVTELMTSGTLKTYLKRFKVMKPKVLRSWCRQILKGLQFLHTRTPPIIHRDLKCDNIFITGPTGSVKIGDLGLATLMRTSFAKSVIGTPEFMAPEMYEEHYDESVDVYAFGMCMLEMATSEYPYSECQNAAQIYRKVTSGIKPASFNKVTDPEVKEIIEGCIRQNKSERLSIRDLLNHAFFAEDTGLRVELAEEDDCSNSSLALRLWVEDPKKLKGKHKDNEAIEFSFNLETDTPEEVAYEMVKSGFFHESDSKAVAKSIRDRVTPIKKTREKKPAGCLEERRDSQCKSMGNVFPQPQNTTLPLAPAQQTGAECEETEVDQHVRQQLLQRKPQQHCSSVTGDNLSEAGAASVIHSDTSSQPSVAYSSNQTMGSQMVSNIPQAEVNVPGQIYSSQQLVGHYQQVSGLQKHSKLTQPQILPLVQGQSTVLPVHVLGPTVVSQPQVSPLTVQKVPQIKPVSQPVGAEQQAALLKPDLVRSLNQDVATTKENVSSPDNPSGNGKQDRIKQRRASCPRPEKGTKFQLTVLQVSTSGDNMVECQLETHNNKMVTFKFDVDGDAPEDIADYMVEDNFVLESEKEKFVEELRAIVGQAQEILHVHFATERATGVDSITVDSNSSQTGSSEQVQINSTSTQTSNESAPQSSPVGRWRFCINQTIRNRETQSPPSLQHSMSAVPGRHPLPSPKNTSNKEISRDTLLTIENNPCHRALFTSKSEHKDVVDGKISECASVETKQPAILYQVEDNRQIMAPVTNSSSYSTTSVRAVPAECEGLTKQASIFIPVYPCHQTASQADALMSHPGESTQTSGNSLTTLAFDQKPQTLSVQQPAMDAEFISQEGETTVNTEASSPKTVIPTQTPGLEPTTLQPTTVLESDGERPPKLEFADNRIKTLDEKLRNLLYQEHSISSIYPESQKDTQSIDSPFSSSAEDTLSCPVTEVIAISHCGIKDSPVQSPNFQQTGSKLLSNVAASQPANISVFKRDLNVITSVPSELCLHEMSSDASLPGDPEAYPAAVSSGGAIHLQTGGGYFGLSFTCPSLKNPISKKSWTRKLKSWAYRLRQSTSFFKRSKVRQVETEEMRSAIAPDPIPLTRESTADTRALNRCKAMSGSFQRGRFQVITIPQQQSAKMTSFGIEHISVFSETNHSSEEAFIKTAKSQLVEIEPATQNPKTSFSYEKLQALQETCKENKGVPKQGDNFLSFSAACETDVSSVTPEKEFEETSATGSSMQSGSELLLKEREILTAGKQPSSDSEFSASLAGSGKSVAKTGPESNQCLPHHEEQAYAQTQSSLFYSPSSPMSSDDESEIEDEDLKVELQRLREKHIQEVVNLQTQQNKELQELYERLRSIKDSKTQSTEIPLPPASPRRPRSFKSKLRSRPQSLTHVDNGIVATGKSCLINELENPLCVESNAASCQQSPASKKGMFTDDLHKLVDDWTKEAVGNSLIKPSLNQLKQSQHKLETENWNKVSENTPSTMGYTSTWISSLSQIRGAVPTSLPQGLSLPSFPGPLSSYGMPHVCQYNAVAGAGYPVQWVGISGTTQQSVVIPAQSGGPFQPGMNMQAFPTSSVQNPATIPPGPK
T4 sequence (Q16644 whole entry): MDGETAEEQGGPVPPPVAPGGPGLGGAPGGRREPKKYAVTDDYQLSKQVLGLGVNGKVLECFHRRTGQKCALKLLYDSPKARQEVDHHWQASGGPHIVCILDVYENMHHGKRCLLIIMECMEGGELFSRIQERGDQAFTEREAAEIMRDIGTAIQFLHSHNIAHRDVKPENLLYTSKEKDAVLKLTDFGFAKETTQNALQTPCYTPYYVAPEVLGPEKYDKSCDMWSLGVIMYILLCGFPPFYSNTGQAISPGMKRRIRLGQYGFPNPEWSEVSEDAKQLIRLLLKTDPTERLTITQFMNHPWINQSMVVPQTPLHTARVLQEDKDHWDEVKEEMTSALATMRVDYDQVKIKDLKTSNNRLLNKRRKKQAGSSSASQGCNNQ
T8 sequence (P22607 23-806): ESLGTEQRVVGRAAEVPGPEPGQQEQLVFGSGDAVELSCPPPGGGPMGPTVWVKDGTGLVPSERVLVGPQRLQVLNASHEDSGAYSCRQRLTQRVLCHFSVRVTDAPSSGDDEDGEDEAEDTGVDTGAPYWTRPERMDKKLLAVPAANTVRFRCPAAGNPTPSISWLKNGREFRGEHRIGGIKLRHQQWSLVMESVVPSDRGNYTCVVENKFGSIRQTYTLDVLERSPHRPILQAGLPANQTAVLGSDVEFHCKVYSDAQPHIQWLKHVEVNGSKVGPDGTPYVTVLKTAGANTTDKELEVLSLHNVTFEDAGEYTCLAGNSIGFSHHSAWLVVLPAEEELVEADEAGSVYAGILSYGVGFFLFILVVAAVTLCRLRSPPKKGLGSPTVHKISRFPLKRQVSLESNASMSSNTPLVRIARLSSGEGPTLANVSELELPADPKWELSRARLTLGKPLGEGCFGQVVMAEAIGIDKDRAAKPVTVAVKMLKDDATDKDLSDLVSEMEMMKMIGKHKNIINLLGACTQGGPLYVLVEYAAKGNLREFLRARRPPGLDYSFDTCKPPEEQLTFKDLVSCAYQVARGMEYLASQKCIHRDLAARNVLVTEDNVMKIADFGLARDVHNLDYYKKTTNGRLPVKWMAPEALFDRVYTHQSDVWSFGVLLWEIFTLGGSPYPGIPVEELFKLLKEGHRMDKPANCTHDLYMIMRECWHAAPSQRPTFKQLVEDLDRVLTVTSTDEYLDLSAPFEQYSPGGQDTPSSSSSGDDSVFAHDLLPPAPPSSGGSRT
T2 sequence (Q13554 whole entry): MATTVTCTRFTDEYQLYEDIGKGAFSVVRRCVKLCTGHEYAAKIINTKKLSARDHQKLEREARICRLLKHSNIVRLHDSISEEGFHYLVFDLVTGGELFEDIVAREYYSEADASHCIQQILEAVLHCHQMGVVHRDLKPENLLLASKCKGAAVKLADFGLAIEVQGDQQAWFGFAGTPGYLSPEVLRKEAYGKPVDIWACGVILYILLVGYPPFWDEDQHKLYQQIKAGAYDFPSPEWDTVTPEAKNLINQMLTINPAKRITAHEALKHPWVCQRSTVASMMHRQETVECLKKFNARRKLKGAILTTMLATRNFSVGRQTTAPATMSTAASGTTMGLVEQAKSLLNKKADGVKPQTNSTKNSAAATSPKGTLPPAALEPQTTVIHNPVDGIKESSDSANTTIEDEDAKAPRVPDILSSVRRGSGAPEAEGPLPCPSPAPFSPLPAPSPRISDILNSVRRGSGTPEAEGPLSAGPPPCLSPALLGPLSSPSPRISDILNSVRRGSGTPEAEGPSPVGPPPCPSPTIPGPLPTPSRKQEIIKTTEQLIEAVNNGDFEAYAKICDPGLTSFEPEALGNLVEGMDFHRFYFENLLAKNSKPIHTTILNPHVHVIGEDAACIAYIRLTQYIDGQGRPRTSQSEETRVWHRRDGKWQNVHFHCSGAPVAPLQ
T1 sequence (P49137 whole entry): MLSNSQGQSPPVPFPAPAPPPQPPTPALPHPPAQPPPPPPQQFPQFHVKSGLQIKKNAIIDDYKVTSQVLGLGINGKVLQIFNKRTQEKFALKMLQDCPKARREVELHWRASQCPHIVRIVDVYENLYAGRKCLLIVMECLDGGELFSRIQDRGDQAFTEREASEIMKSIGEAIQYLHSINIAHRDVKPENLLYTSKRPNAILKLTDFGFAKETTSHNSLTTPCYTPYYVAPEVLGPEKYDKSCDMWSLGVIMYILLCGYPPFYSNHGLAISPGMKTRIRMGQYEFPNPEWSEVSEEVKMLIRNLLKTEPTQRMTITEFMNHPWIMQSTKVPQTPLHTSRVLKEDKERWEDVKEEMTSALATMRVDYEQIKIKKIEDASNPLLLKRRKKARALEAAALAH

| Compound | remaining activity at 5 µM [1] | remaining activity at 5 µM [2] | remaining activity at 5 µM [3] | remaining activity at 5 µM [4] | remaining activity at 5 µM [5] | remaining activity at 5 µM [6] | remaining activity at 5 µM [7] | remaining activity at 5 µM [8] | remaining activity at 5 µM [9] | remaining activity at 10 µM ([1]; 10 uM) | remaining activity at 10 µM ([2]; 10 uM) | remaining activity at 10 µM ([3]; 10 uM) | remaining activity at 10 µM ([4]; 10 uM) | remaining activity at 10 µM ([5]; 10 uM) | remaining activity at 10 µM ([6]; 10 uM) | remaining activity at 10 µM ([7]; 10 uM) | remaining activity at 10 µM ([8]; 10 uM) | remaining activity at 10 µM ([9]; 10 uM) |
| --- | --- | --- | --- | --- | --- | --- | --- | --- | --- | --- | --- | --- | --- | --- | --- | --- | --- | --- |
| O=C(Nc1cnn(-c2csc(C(=O)NC3COC3)c2)c1)Nc1ccccc1Cl [Compound 17, 4-(4-(3-(2-chlorophenyl)ureido)-1H-pyrazol-1-yl)-N-(oxetan-3-yl)thiophene-2-carboxamide] | 97.1% | 105% | 105% | 83.5% | 99.5% | 104% | 105% | 97.8% | 64.6% | – | – | – | – | – | – | – | – | – |
| O=C(Nc1cnn(-c2csc(C(=O)NC3COC3)c2)c1)Nc1c(F)cccc1Cl [Compound 25, 4-(4-(3-(2-chloro-6-fluorophenyl)ureido)-1H-pyrazol-1-yl)-N-(oxetan-3-yl)thiophene-2-carboxamide] | 99.8% | 99.1% | 98.9% | 95.6% | 91.8% | 91.5% | 93.6% | 92% | 73.3% | – | – | – | – | – | – | – | – | – |
| Cc1sc(C(=O)NC2COC2)cc1-n1cc(NC(=O)Nc2c(F)cccc2Cl)cn1 [Compound 27, 4-(4-(3-(2-chloro-6-fluorophenyl)ureido)-1H-pyrazol-1-yl)-5-methyl-N-(oxetan-3-yl)thiophene-2-carboxamide] | – | – | – | – | – | – | – | – | – | 93.6% | 100% | 103% | 110% | 102% | 87.5% | 104% | 137% | 95.1% |
